Results as given in BigSolDB 2.1.

N#CCc1ccc([N+](=O)[O-])cc1
solubility (mole fraction)
Details | in ethylbenzene | in isobutanol | in isopropanol | in methanol | in n-butanol | in n-propanol | in toluene | in water
278.15 K | – | 0.000842 | 0.000901 | 0.00237 | 0.00128 | 0.00133 | 0.00791 | 1.5e-05
283.15 K | – | 0.00108 | 0.00119 | 0.00274 | 0.00147 | 0.00165 | 0.00966 | 1.94e-05
288.15 K | – | 0.00139 | 0.00153 | 0.00336 | 0.0019 | 0.00204 | 0.0117 | 2.48e-05
293.15 K | 0.00969 | 0.00178 | 0.00193 | 0.0043 | 0.00241 | 0.0026 | 0.0148 | 2.98e-05
298.15 K | 0.0118 | 0.00229 | 0.00252 | 0.00547 | 0.00306 | 0.00332 | 0.0177 | 3.55e-05
303.15 K | 0.0135 | 0.00299 | 0.00332 | 0.00695 | 0.00388 | 0.0042 | 0.0208 | 4.27e-05
308.15 K | 0.0163 | 0.00383 | 0.00424 | 0.00865 | 0.00501 | 0.00526 | 0.0252 | 5.2e-05
313.15 K | 0.0201 | 0.00492 | 0.00535 | 0.011 | 0.00643 | 0.00673 | 0.0298 | 6.4e-05
318.15 K | 0.0238 | 0.0063 | 0.00683 | 0.0136 | 0.00807 | 0.00847 | 0.0354 | 7.89e-05
323.15 K | 0.0284 | 0.00806 | 0.00864 | 0.017 | 0.0102 | 0.0107 | 0.0432 | 9.63e-05
328.15 K | 0.0343 | 0.0102 | 0.011 | 0.0212 | 0.0129 | 0.0135 | 0.053 | 0.000117
333.15 K | 0.0446 | 0.0129 | 0.0138 | 0.0262 | 0.0159 | 0.017 | 0.0657 | 0.000142
